Laboratory results published in US11214594B2, “Antimicrobial peptide having synergistic antibacterial effect with antibiotics on multidrug resistant bacteria, and use thereof” (priority 2016, dated 2022).
≈ marks a conversion by molar mass, not a printed value. Where a SMILES comes first, the peptide text is derived from it. [ ]: non-standard residue; d: D form.

Assays:
[1] = system: MRSA 3114; assay type: cell-based, Staphylococcus aureus; details: 3114
Outline: (§1)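 Peptides were serially diluted twofold in Mueller-Hinton medium and combined 1:1 with bacterial suspensions prepared at 2×10^6 CFU. Readout was the minimal inhibitory concentration, i.e. the lowest concentration with no growth.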

[2] = system: MRSA 3126; assay type: cell-based, Staphylococcus aureus; details: 3126
Outline: as §1

[3] = system: MDREC 1238; assay type: cell-based, Escherichia coli
Outline: as §1

[4] = system: MDRST 8007; experiment: Minimal inhibitory concentration (MIC), single agent; assay type: cell-based, Salmonella typhimurium; details: agent alone
Outline: as §1

[5] = system: MDRAB 12036; assay type: cell-based, Acinetobacter baumannii
Outline: as §1

[6] = system: multi-drug resistant bacteria; experiment: MIC, summary statements for multi-drug resistant bacteria; assay type: cell-based
Outline: as §1

[7] = system: MDREC 1229; experiment: MIC of antibiotic during combined treatment with antimicrobial peptide; assay type: cell-based, Escherichia coli
Outline: (§2)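 Strains in MH medium at 2×10^6 CFU/ml were mixed with peptide diluted stepwise (2:1) from its MIC, then antibiotic dilutions in MH medium were added to give the antibiotic MIC. The reversed set-up, peptide titrated against fixed antibiotic, gave the peptide MIC.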

[8] = system: MDRPA 2003; assay type: cell-based, Pseudomonas aeruginosa
Outline: as §1

[9] = system: MDRPA 2002; assay type: cell-based, Pseudomonas aeruginosa
Outline: as §1

[10] = system: S. typhimurium; experiment: microbe, parasite or virus in culture; assay type: cell-based, Salmonella typhimurium
Outline: as §1

[11] = system: MDRAB 12035; experiment: MIC of antibiotic during combined treatment with antimicrobial peptide; assay type: cell-based, Acinetobacter baumannii
Outline: as §2

[12] = peptide treatment concentration 1 μg/ml
[13] = peptide treatment concentration 2 μg/ml
[14] = peptide treatment concentration 4 μg/ml
[15] = peptide treatment concentration 6 μg/ml
[16] = peptide treatment concentration 8 μg/ml
[17] = peptide treatment concentration 16 μg/ml
[18] = peptide treatment concentration 32 μg/ml
[19] = peptide treatment concentration 64 μg/ml

CC[C@H](C)[C@H](NC(=O)[C@H](CCCCN)NC(=O)[C@H](Cc1c[nH]c2ccccc12)NC(=O)[C@@H](N)CCCNC(=N)N)C(=O)N[C@@H](Cc1ccccc1)C(=O)N[C@@H](CCCCN)C(=O)N[C@@H](CCCCN)C(=O)N[C@H](C(=O)N[C@H](CCCCN)C(=O)N[C@@H](CCCCN)C(=O)N[C@@H](CC(C)C)C(=O)N[C@@H](CC(C)C)C(=O)N[C@@H](Cc1c[nH]cn1)C(=O)N[C@@H](CCC(=O)O)C(=O)N[C@@H](C)C(=O)N[C@@H](CCCCN)C(=O)N[C@@H](CCCCN)C(=O)N[C@@H](Cc1c[nH]c2ccccc12)C(N)=O)[C@@H](C)CC [PapMA-20, RWK IFK KIk KLL HEA KKW-NH2] (H-RWKIFKKI[dK]KLLHEAKKW-NH2; N-terminus assumed)
Minimal inhibitory concentration MIC [1]: >128 µg/mL | Minimal inhibitory concentration MIC [2]: >128 µg/mL | Minimal inhibitory concentration MIC [3]: 32 µg/mL (≈ 13.4 µM) | Minimal inhibitory concentration MIC [4]: 64 µg/mL (≈ 26.9 µM) | Minimal inhibitory concentration MIC [5]: 16 µg/mL (≈ 6.72 µM) | Antibacterial activity relative to PapMA-1 [6]: twice to four times higher | Antibiotic MIC, Erythromycin [7, 12]: 128 µg/mL | Antibiotic MIC, Linezolid [7, 12]: >128 µg/mL | Antibiotic MIC, Vancomycin [7, 12]: >128 µg/mL | Antibiotic MIC, Erythromycin [7, 13]: 32 µg/mL | Antibiotic MIC, Linezolid [7, 13]: 64 µg/mL | Antibiotic MIC, Vancomycin [7, 13]: >128 µg/mL | Antibiotic MIC, Erythromycin [7, 14]: 8 µg/mL | Antibiotic MIC, Linezolid [7, 14]: 16 µg/mL | Antibiotic MIC, Vancomycin [7, 14]: 64 µg/mL | Antibiotic MIC, Erythromycin [7, 15]: 2 µg/mL | Antibiotic MIC, Linezolid [7, 15]: 16 µg/mL | Antibiotic MIC, Vancomycin [7, 15]: 16 µg/mL | Antibiotic MIC, Erythromycin [7, 16]: 1 µg/mL | Antibiotic MIC, Linezolid [7, 16]: 8 µg/mL | Antibiotic MIC, Vancomycin [7, 16]: 8 µg/mL | Antibiotic MIC, Erythromycin [7, 17]: 0 µg/mL | Antibiotic MIC, Linezolid [7, 17]: 0 µg/mL | Antibiotic MIC, Vancomycin [7, 17]: 0 µg/mL | Antibiotic MIC, Erythromycin [7, 18]: 0 µg/mL | Antibiotic MIC, Linezolid [7, 18]: 0 µg/mL | Antibiotic MIC, Vancomycin [7, 18]: 0 µg/mL | Antibiotic MIC, Erythromycin [7, 19]: 0 µg/mL | Antibiotic MIC, Linezolid [7, 19]: 0 µg/mL | Antibiotic MIC, Vancomycin [7, 19]: 0 µg/mL | Minimal inhibitory concentration MIC [8]: 64 µg/mL (≈ 26.9 µM) | Minimal inhibitory concentration MIC [9]: 64 µg/mL (≈ 26.9 µM) | Minimal inhibitory concentration MIC [10]: 32 µg/mL (≈ 13.4 µM) | Erythromycin MIC during combined treatment with peptide [11, 12]: 32 µg/mL | Linezolid MIC during combined treatment with peptide [11, 12]: >128 µg/mL | Vancomycin MIC during combined treatment with peptide [11, 12]: >128 µg/mL | Erythromycin MIC during combined treatment with peptide [11, 13]: 16 µg/mL | Linezolid MIC during combined treatment with peptide [11, 13]: 128 µg/mL | Vancomycin MIC during combined treatment with peptide [11, 13]: >128 µg/mL | Erythromycin MIC during combined treatment with peptide [11, 14]: 8 µg/mL | Linezolid MIC during combined treatment with peptide [11, 14]: 32 µg/mL | Vancomycin MIC during combined treatment with peptide [11, 14]: 64 µg/mL | Erythromycin MIC during combined treatment with peptide [11, 15]: 4 µg/mL | Linezolid MIC during combined treatment with peptide [11, 15]: 16 µg/mL | Vancomycin MIC during combined treatment with peptide [11, 15]: 16 µg/mL | Erythromycin MIC during combined treatment with peptide [11, 16]: 0.5 µg/mL | Linezolid MIC during combined treatment with peptide [11, 16]: 4 µg/mL | Vancomycin MIC during combined treatment with peptide [11, 16]: 4 µg/mL | Erythromycin MIC during combined treatment with peptide [11, 17]: 0 µg/mL | Linezolid MIC during combined treatment with peptide [11, 17]: 0 µg/mL | Vancomycin MIC during combined treatment with peptide [11, 17]: 0 µg/mL | Erythromycin MIC during combined treatment with peptide [11, 18]: 0 µg/mL | Linezolid MIC during combined treatment with peptide [11, 18]: 0 µg/mL | Vancomycin MIC during combined treatment with peptide [11, 18]: 0 µg/mL | Erythromycin MIC during combined treatment with peptide [11, 19]: 0 µg/mL | Linezolid MIC during combined treatment with peptide [11, 19]: 0 µg/mL | Vancomycin MIC during combined treatment with peptide [11, 19]: 0 µg/mL

CC[C@H](C)[C@H](NC(=O)[C@H](CCCCN)NC(=O)[C@H](Cc1c[nH]c2ccccc12)NC(=O)[C@@H](N)CCCNC(=N)N)C(=O)N[C@@H](Cc1ccccc1)C(=O)N[C@@H](CCCCN)C(=O)N[C@@H](CCCCN)C(=O)N[C@H](C(=O)N[C@H](CC(C)C)C(=O)N[C@@H](CCCCN)C(=O)N[C@@H](CC(C)C)C(=O)N[C@@H](CC(C)C)C(=O)N[C@@H](Cc1c[nH]cn1)C(=O)N[C@@H](CCCCN)C(=O)N[C@@H](C)C(=O)N[C@@H](CCCCN)C(=O)N[C@@H](CCCCN)C(=O)N[C@@H](Cc1c[nH]c2ccccc12)C(N)=O)[C@@H](C)CC [PapMA-22, RWK IFK KIl KLL HKA KKW-NH2] (H-RWKIFKKI[dL]KLLHKAKKW-NH2; N-terminus assumed)
Minimal inhibitory concentration MIC [1]: >128 µg/mL | Minimal inhibitory concentration MIC [2]: >128 µg/mL | Minimal inhibitory concentration MIC [3]: 32 µg/mL (≈ 13.5 µM) | Minimal inhibitory concentration MIC [4]: 32 µg/mL (≈ 13.5 µM) | Minimal inhibitory concentration MIC [5]: 32 µg/mL (≈ 13.5 µM) | Antibacterial activity relative to PapMA-1 [6]: twice to four times higher | Antibiotic MIC, Erythromycin [7, 12]: 128 µg/mL | Antibiotic MIC, Linezolid [7, 12]: >128 µg/mL | Antibiotic MIC, Vancomycin [7, 12]: >128 µg/mL | Antibiotic MIC, Erythromycin [7, 13]: 32 µg/mL | Antibiotic MIC, Linezolid [7, 13]: >128 µg/mL | Antibiotic MIC, Vancomycin [7, 13]: >128 µg/mL | Antibiotic MIC, Erythromycin [7, 14]: 32 µg/mL | Antibiotic MIC, Linezolid [7, 14]: 128 µg/mL | Antibiotic MIC, Vancomycin [7, 14]: >128 µg/mL | Antibiotic MIC, Erythromycin [7, 15]: 16 µg/mL | Antibiotic MIC, Linezolid [7, 15]: 64 µg/mL | Antibiotic MIC, Vancomycin [7, 15]: >128 µg/mL | Antibiotic MIC, Erythromycin [7, 16]: 4 µg/mL | Antibiotic MIC, Linezolid [7, 16]: 32 µg/mL | Antibiotic MIC, Vancomycin [7, 16]: 64 µg/mL | Antibiotic MIC, Erythromycin [7, 17]: 2 µg/mL | Antibiotic MIC, Linezolid [7, 17]: 16 µg/mL | Antibiotic MIC, Vancomycin [7, 17]: 32 µg/mL | Antibiotic MIC, Erythromycin [7, 18]: 0 µg/mL | Antibiotic MIC, Linezolid [7, 18]: 0 µg/mL | Antibiotic MIC, Vancomycin [7, 18]: 0 µg/mL | Antibiotic MIC, Erythromycin [7, 19]: 0 µg/mL | Antibiotic MIC, Linezolid [7, 19]: 0 µg/mL | Antibiotic MIC, Vancomycin [7, 19]: 0 µg/mL | Minimal inhibitory concentration MIC [8]: 32 µg/mL (≈ 13.5 µM) | Minimal inhibitory concentration MIC [9]: 32 µg/mL (≈ 13.5 µM) | Minimal inhibitory concentration MIC [10]: 32 µg/mL (≈ 13.5 µM) | Erythromycin MIC during combined treatment with peptide [11, 12]: 32 µg/mL | Linezolid MIC during combined treatment with peptide [11, 12]: >128 µg/mL | Vancomycin MIC during combined treatment with peptide [11, 12]: >128 µg/mL | Erythromycin MIC during combined treatment with peptide [11, 13]: 32 µg/mL | Linezolid MIC during combined treatment with peptide [11, 13]: >128 µg/mL | Vancomycin MIC during combined treatment with peptide [11, 13]: >128 µg/mL | Erythromycin MIC during combined treatment with peptide [11, 14]: 16 µg/mL | Linezolid MIC during combined treatment with peptide [11, 14]: 64 µg/mL | Vancomycin MIC during combined treatment with peptide [11, 14]: 128 µg/mL | Erythromycin MIC during combined treatment with peptide [11, 15]: 2 µg/mL | Linezolid MIC during combined treatment with peptide [11, 15]: 16 µg/mL | Vancomycin MIC during combined treatment with peptide [11, 15]: 32 µg/mL | Erythromycin MIC during combined treatment with peptide [11, 16]: 1 µg/mL | Linezolid MIC during combined treatment with peptide [11, 16]: 16 µg/mL | Vancomycin MIC during combined treatment with peptide [11, 16]: 16 µg/mL | Erythromycin MIC during combined treatment with peptide [11, 17]: 0.25 µg/mL | Linezolid MIC during combined treatment with peptide [11, 17]: 8 µg/mL | Vancomycin MIC during combined treatment with peptide [11, 17]: 8 µg/mL | Erythromycin MIC during combined treatment with peptide [11, 18]: 0 µg/mL | Linezolid MIC during combined treatment with peptide [11, 18]: 0 µg/mL | Vancomycin MIC during combined treatment with peptide [11, 18]: 0 µg/mL | Erythromycin MIC during combined treatment with peptide [11, 19]: 0 µg/mL | Linezolid MIC during combined treatment with peptide [11, 19]: 0 µg/mL | Vancomycin MIC during combined treatment with peptide [11, 19]: 0 µg/mL
